Measured values taken from patent publication US10172835B2, “Anticancer agent composition” (J-Pharma Co., Ltd., priority 2014, dated 2019).
Where a name gives a salt, the structure may show the parent alone.

How the values were obtained:
[1] = system: caspase 3; assay: Western blot of caspase 3 activation and PARP cleavage in primary tPTEN−/− tumor cells (KO#732); assay type: cell-based, murine; conditions: primary KO#732 cells; COMPOUND-JP 5.0, 10.0 μM; PI-103 10.0 μM; rapamycin 10.0 nM; 2.0-18.0 h
Procedure: (§1) Cell extracts were prepared using a cell lysis buffer (50 mM HEPES, pH 7.4, 150 mM NaCl, 20 mM EDTA, 100 mM NaF, 10 mM Na3VO4, 0.5% nonyl phenoxypolyethoxylethanol (NP40) supplemented with a cocktail of protease inhibitors. After SDS-PAGE separation and transfer to nitrocellulose immunoblotting was performed using the following antibodies against: Akt (Cell Signaling Technologies, #9272), CHOP (#2895), cleaved caspase 3 (#9664), c-Myc (#9402), eIF2a (#9721), 4EBP1 (#9644), LC3A/B (#12741), PARP (#9542), pJnk (T183/Y185) (#9251), pSer235-236-S6RP (#4856), pSer473-Akt (#9271), pSer65-4EBP1 (#9451) and S6RP (#2217); Bax (Sigma-Aldrich, B8429); PUMA (Abcam, ab54288); Bak (Millipore, 06536); ATF4 (Santa Cruz Biotechnologies, sc200), GADD34 (sc8327), Hsp60 (sc-1722), Hsp90 (sc-13119) and XBP1 (sc-7160); ATF6 (Imgenex, IMG-273).

[2] = system: KO99L cells; assay: Combination studies with COMPOUND-JP, WST-1 viability, Chou-Talalay combination index; assay type: cell-based, murine; conditions: 48 h, suboptimal concentrations, in combination with COMPOUND-JP
Procedure: Combinations were analyzed by ANOVA followed by Tukey's Multiple comparison test to determine significance between experimental groups. The synergism between drugs was analyzed using the Chou-Talalay method. […] P-value <0.05 was accepted as statistically significant (*:p<0.05; **:p<0.01; ***:p<0.001). Analyses were performed using the GraphPAd Prism 3.0 software.

[3] = system: KO99L cells; assay: BrdU incorporation Elisa (proliferation) on KO99L cells; assay type: cell-based, murine; conditions: 50.0 μM, KO99L cells
Procedure: Two different assays were employed: i) In a 96-well plate format, cells (4.0±0.1×10^4 per well; 100 μL) were incubated with effectors (48 h, 37° C.; n=4 per experiment) and then WST-1 reagent (10 μL; Roche Diagnostics) added to each well of 96-well plates, incubated, and the formazan production was measured at 490 nm; and ii) cells (2.0±0.1×10^4 per well; 100 μL) were incubated with effectors (48 h, 37° C.; n=4 per experiment) and then bromodeoxyuridine reagent (10 μL/well; Roche Diagnostics) was added to each well and incubated (8 h, 37° C.). The cells were then fixed, denatured and incubated with anti-BrdU-conjugated with peroxidase (POD) antibody (100 μL/well). Colorimetric substrate (TMB: tetramethyl-benzidine; 100 μL/well) was added and BrdU incorporation quantified via optical density measurement (450 nm) which corresponds to DNA synthesis and proliferating cells.

[4] = system: KO99L cells; assay: Cell death by flow cytometry after DAPI staining, KO99L cells; assay type: cell-based, murine; conditions: 50.0 μM
[5] = system: caspase 3; assay: Western blot of caspase 3 activation and PARP cleavage, KO99L cells; assay type: cell-based, murine; conditions: 50.0 μM
Procedure: as §1

[6] = system: CHOP; assay: Western blot of CHOP protein levels, KO99L cells; assay type: cell-based, murine; conditions: 50.0 μM
Procedure: as §1

[7] = system: Bcl2 family members; assay: Western blot of Bcl2 family members, KO99L cells; assay type: cell-based, murine
Procedure: as §1

[8] = system: human Peripheral Blood Lymphocytes; assay: Proliferative response of human PBL; assay type: cell-based; conditions: 1.0 μM, positive inducer of cell death

Oc1cccc(-c2nc(N3CCOCC3)c3oc4ncccc4c3n2)c1 [PI103, 3-[4-(4-Morpholinylpyrido[3′,2′:4,5]furo[3,2-d]pyrimidin-2-yl]phenol hydrochloride, reference compound]
caspase 3 processing and PARP cleavage (apoptosis) [1]: efficient cell death inducer
combination effect with COMPOUND-JP on metabolic activity/cell survival (Combination Index) [2]: less efficient

O=C(C=Cc1ccccc1)NC(NC(=S)Nc1cccc2cccnc12)C(Cl)(Cl)Cl (centres unmarked) [salubrinal, N-(2,2,2-trichloro-1-(3-(quinolin-8-yl)thioureido)ethyl)cinnamamide, reference compound]
cell proliferation (BrdU incorporation or cell counting) in presence of COMPOUND-JP [3]: restored cell proliferation
cell death induced via COMPOUND-JP [4]: rescue KO99L cells against cell death
caspase 3 cleavage in presence of COMPOUND-JP [5]: decreased caspase 3 cleavage
effect on CHOP induction by COMPOUND-JP (10.0 μM) [6]: offset CHOP induction
COMPOUND-JP induction of Bax, Bak, PUMA and Bim in presence of salubrinal [7]: sensitive to inhibition of CHOP by salubrinal

CN[C@@H]1C[C@H]2O[C@@](C)([C@@H]1OC)n1c3ccccc3c3c4c(c5c6ccccc6n2c5c31)C(=O)NC4 [staurosporine, reference compound]
PBL cell proliferation [8]: strongly affected cell proliferation
